Assay [1] deals with T1, mouse TREX1 (Mus musculus, UniProt Q91XB0).
T1 construct: N-terminally His-Tev tagged full length mouse TREX1; made in house; host or cells: E. coli
T1 sequence (Q91XB0 1-314): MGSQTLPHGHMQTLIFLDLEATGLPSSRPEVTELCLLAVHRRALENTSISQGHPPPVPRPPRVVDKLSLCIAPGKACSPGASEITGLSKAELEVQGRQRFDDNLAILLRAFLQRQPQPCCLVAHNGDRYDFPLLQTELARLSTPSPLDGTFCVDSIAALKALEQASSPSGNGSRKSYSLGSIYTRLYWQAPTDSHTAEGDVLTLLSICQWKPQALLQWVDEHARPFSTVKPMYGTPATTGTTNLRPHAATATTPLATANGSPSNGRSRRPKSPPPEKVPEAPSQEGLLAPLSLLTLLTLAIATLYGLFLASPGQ
Put plainly: mTREX1 Biochemical Assay (fluorescence, dsDNA substrate degradation). To be noted: full length mouse TREX1, 4 h pre-incubation, 18 h reaction at 25° C. How it is done: (§1) Degradation of the dsDNA liberates free fluorophore to produce a fluorescent signal. Specifically, 7.5 p L of N-terminally His-Tev tagged full length mouse TREX1 (expressed in E. coli and purified in house) in reaction buffer (50 mM Tris, 150 mM NaCl, 2 mM DTT, 0.1 mg/mL BSA, 0.01% (w/v) Tween-20, 5 mM MgCl2, pH 7.4) was added to a 384-well Black ProxiPlate Plus (PerkinElmer) which already contained compound (150 nL) at varying concentrations as a 10 point dose-response in DMSO. The plate was incubated at 25° C. for 4 hours. Reactions were initiated by adding 7.5 μL of dsDNA substrate (Strand A: 5′ TEX615/GCT AGG CAG 3′; Strand B: 5′ CTG CCT AGC/IAbRQSp (Integrated DNA Technologies)) in reaction buffer. Final concentrations were 6 pM TREX1, 60 nM dsDNA substrate in reaction buffer with 1.0% DMSO (v/v). After 18 hours at 25° C., reactions were quenched by the addition of 2 p L of 500 mM EDTA. Final concentrations in the quenched reaction were 5.3 pM TREX1, 53 nM DNA and 59 mM EDTA in a volume of 17 p L. After a 5-minute incubation at room temperature, plates were read in an EnVision plate reader (PerkinElmer) measuring fluorescence at 615 nm following excitation w/ 570 nm light. IC50 values were calculated by comparing the measured fluorescence at 615 nm relative to control wells pre-quenched w/ EDTA (100% inhibition) and no inhibitor (0% inhibition) controls as using non-linear least square four parameter fits and either Genedata or GraphPad Prism (GraphPad Software, Inc.).

For assay [2], the target named is T2, human TREX1 (Homo sapiens, UniProt Q9NSU2).
T2 construct: N-terminally His-Tev tagged full length human TREX1; made in house; host or cells: E. coli
T2 sequence (Q9NSU2 1-314): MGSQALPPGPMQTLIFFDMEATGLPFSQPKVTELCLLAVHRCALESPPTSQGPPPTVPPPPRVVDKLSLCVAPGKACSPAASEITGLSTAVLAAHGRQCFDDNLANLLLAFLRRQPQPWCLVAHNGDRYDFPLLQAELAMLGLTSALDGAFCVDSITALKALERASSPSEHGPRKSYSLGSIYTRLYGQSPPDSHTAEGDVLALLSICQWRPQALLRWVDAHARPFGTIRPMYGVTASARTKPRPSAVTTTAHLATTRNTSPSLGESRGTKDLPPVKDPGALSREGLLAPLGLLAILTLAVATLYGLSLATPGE
Put plainly: hTREX1 Biochemical Assay (fluorescence, dsDNA substrate degradation). The following applies: full length human TREX1, 4 h pre-incubation, 18 h reaction at 25° C. How it is done: as §1, with “7.5 μL” for “7.5 p L”, “length human” for “length mouse”, “were 4” for “were 6”, “were 3.5” for “were 5.3”, “17 μL.” for “17 p L.”

Assay [3] deals with T3, human TREX2 (Homo sapiens, UniProt Q9BQ50).
T3 construct: human TREX2 (residues M44-A279, expressed in E. coli); made in house; host or cells: E. coli
T3 sequence (Q9BQ50 44-279 isoform Q9BQ50-1): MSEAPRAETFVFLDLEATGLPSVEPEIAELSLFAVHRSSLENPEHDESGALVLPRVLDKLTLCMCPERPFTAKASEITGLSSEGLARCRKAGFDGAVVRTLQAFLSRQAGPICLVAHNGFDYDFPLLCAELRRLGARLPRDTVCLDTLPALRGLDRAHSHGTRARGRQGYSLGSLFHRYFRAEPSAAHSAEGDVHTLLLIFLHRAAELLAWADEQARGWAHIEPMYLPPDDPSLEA
Put plainly: hTREX2 Biochemical Assay (selectivity hTREX1 vs hTREX2). To be noted: biochemical selectivity for hTREX1 vs hTREX2. How it is done:
Degradation of the dsDNA liberates free fluorophore to produce a fluorescent signal. Specifically, 7.5 p L of N-terminally His-Tev tagged human TREX2 (residues M44-A279, expressed in E. coli and purified in house) in reaction buffer (50 mM Tris, 150 mM NaCl, 2 mM DTT, 0.1 mg/mL BSA, 0.01% (w/v) Tween-20, 5 mM MgCl2, pH 7.4) was added to a 384-well Black ProxiPlate Plus (PerkinElmer) which already contained compound (150 nL) at varying concentrations as a 10 point dose-response in DMSO. The plate was incubated at 25° C. for 4 hours. Reactions were initiated by adding 7.5 μL of dsDNA substrate (Strand A: 5′ TEX615/GCT AGG CAG 3′; Strand B: 5′ CTG CCT AGC/IAbRQSp (IDT)) in reaction buffer. Final concentrations were 50 pM TREX2, 60 nM dsDNA substrate in reaction buffer with 1.0% DMSO (v/v). After 18 hours at 25° C., reactions were quenched by the addition of 2 μL of 500 mM EDTA. Final concentrations in the quenched reaction mixture were 44 pM TREX2, 53 nM DNA and 59 mM EDTA in a volume of 17 μL. After a 5-minute incubation at room temperature, plates were read in an EnVision plate reader (PerkinElmer) measuring fluorescence at 615 nm following excitation w/ 570 nm light. IC50 values were calculated by comparing the measured fluorescence at 615 nm relative to control wells pre-quenched w/ stop buffer (100% inhibition) and no inhibitor (0% inhibition) controls as using non-linear least square four parameter fits and either Genedata or GraphPad Prism (GraphPad Software, Inc.).

As for `Cn1c([C@H](C(c2ccccc2)c2ccccc2)C(F)(F)F)nc(C(=O)Nc2cnoc2)c(O)c1=O` (single isomer, unassigned) [Example 20 Isomer 2, 5-Hydroxy-N-(isoxazol-4-yl)-1-methyl-6-oxo-2-(1,1,1-trifluoro-3,3-diphenylpropan-2-yl)-1,6-dihydropyrimidine-4-carboxamide], the IC50 in assay [1] is > 10 nM; in assay [2], > 100 nM. Moreover, the “hTREX1 vs hTREX2 selectivity” value in assay [3] is given as “A (A = <25 fold selective for hTREX1)”.
The matching figures for `CC(c1nc(C(=O)Nc2cnoc2)c(O)c(=O)n1C)C(c1ccccc1)c1ccccc1C#N` (single isomer, unassigned) [Example 3 Isomer 2]: > 10 nM, > 100 nM and “A (A = <25 fold selective for hTREX1)”.
The matching figures for `Cn1c([C@@H](CF)C(c2ccccc2)c2ccccc2)nc(C(=O)Nc2cnoc2)c(O)c1=O` (single isomer, unassigned) [Example 18 Isomer 1, 2-(3-fluoro-1,1-diphenylpropan-2-yl)-5-hydroxy-N-(isoxazol-4-yl)-1-methyl-6-oxo-1,6-dihydropyrimidine-4-carboxamide]: > 10 nM, 10 to 100 nM and “A (A = <25 fold selective for hTREX1)”.
On the same counts, the results for `CC(c1nc(C(=O)Nc2cnoc2)c(O)c(=O)n1C)C(c1ccccc1Cl)c1ccccc1C#N` (single isomer, unassigned) [Example 10 Isomer 3] are 1 to 10 nM, < 1 nM and “C (C = >50 fold selective for hTREX1)”.
As for `CC(c1nc(C(=O)Nc2cnoc2)c(O)c(=O)n1C)C(c1ccccc1)c1ccc(F)cc1C#N` (single isomer, unassigned) [Example 7 Isomer 2], the IC50 in assay [1] is > 10 nM; in assay [2], > 100 nM. Besides, the “hTREX1 vs hTREX2 selectivity” value in assay [3] is “A (A = <25 fold selective for hTREX1)”.
The matching figures for `C[C@H](c1nc(C(=O)Nc2cnoc2)c(O)c(=O)n1C)[C@H](c1ccccc1)c1ccc(C(=O)N(C)C)cc1C#N` (single isomer, unassigned) [Example 16 Isomer 3, 2-(1-(2-cyano-4-(dimethylcarbamoyl)phenyl)-1-phenylpropan-2-yl)-5-hydroxy-N-(isoxazol-4-yl)-1-methyl-6-oxo-1,6-dihydropyrimidine-4-carboxamide]: > 10 nM, > 100 nM and “A (A = <25 fold selective for hTREX1)”.
In the case of `CC(c1nc(C(=O)Nc2cnoc2)c(O)c(=O)n1C)C(c1ccccc1)c1cc(F)ccc1C#N` (single isomer, unassigned) [Example 6 Isomer 1], the results for the IC50 in assay [1] and in assay [2] were > 10 nM and 1 to 10 nM, respectively. For the same compound, the “hTREX1 vs hTREX2 selectivity” value in assay [3] is given as “C (C = >50 fold selective for hTREX1)”.
On the same counts, the results for `CC(c1nc(C(=O)Nc2cnoc2)c(O)c(=O)[nH]1)C(c1ccccc1C#N)c1ccccc1C#N` (single isomer, unassigned) [Example 5 Isomer 1, 2-(1,1-bis(2-cyanophenyl)propan-2-yl)-5-hydroxy-N-(isoxazol-4-yl)-6-oxo-1,6-dihydropyrimidine-4-carboxamide] are 1 to 10 nM, < 1 nM and “B (B = 25 to 50 fold selective for hTREX1)”.
With `C[C@H](c1nc(C(=O)Nc2cnoc2)c(O)c(=O)n1C)[C@H](c1ccccc1)c1ccccc1Cl` (single isomer, unassigned) [Example 2 Isomer 1, 2-[1-(2-chlorophenyl)-1-phenylpropan-2-yl]-5-hydroxy-1-methyl-N-(1,2-oxazol-4-yl)-6-oxopyrimidine-4-carboxamide], the IC50 is > 10 nM in assay [1] and 1 to 10 nM in assay [2]. The “hTREX1 vs hTREX2 selectivity” value in assay [3] is listed as “A (A = <25 fold selective for hTREX1)”.
On the same counts, the results for `Cn1c(C(F)(F)C(c2ccccc2)c2ccccc2)nc(C(=O)Nc2cnoc2)c(O)c1=O` [Example 19, 2-(1,1-difluoro-2,2-diphenylethyl)-5-hydroxy-N-(isoxazol-4-yl)-1-methyl-6-oxo-1,6-dihydropyrimidine-4-carboxamide] are > 10 nM, 10 to 100 nM and “B (B = 25 to 50 fold selective for hTREX1)”.
On the same counts, the results for `C[C@H](c1nc(C(=O)Nc2cnoc2)c(O)c(=O)n1C)C(c1ccccc1Cl)c1ccccc1Cl` (single isomer, unassigned) [Example 15 Isomer 2, 2-(1,1-bis(2-chlorophenyl)propan-2-yl)-5-hydroxy-N-(isooxazol-4-yl)-1-methyl-6-oxo-1,6-dihydropyrimidine-4-carboxamide] are > 10 nM, > 100 nM and “A (A = <25 fold selective for hTREX1)”.

The term IC50 denotes the concentration that inhibits the measured activity by half.

For the origin of these results see patent publication US20240262814A1, “MODULATORS OF TREX1” (Constellation Pharmaceuticals, Inc., priority 2021, published 2024).
